According to patent US20180116993A1, “MODULATORS OF FARNESOID X RECEPTOR AND METHODS FOR THE USE THEREOF” (XIAMEN UNIVERSITY, priority 2015, published 2018):
Marks after values point to notes of the source that are not given here.

What was measured:
db/db mice [1] = assay: Hepatic triglyceride, liver histology, serum ALT and ALP in high-fat diet fed db/db mice; format: in vivo, mouse; conditions: for Hepatic triglyceride (mM/g): vehicle 148 ± 14; for Serum ALP (U/L): vehicle 129 ± 15
Outline: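 High-fat diet fed db/db mice aged 8-10 weeks dosed 10 mg/kg compound once daily for 10 days. Liver sections stained with H&E and 0.3% oil red O; hepatic triglyceride measured by tissue assay kit; serum ALP and ALT activities measured by kit.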

[2] = test system: mice with APAP-induced liver injury; assay: Acetaminophen (APAP)-induced liver injury in mouse; format: in vivo; conditions: for ALT (U/L) / Hepatic GSH (μM/g liver tissue): then APAP 500 mg/kg; for ALT (U/L): serum, vehicle 786 ± 111
Source text: Methods: Acetaminophen (APAP)-induced liver injury in mouse is a commonly used model to study drugs protecting liver. Overdose of APAP causes liver injury by inducing the production of reactive oxygen species and reactive nitrogen species, and excessive consumption of reductive substances such as antioxidant glutathione (GSH), leading to the reduction of GSH in vivo, and the following upregulation of the activities of the aspartate aminotransferase (AST), the alanine aminotransferase (ALT) and the lactate dehydrogenase (LDH), which will result in liver inflammation and necrosis. In this example, the APAP-induced liver injury was used to detect the protection and repair functions of our compounds in liver injury.
One-year or 8-week age mice were maintained under environmentally controlled conditions with free access to standard chow diet and water. Animal experiments were conducted in the barrier facility of the Laboratory Animal Center, Xiamen University, approved by the Institutional Animal Use and Care Committee of Xiamen University, China.
Compounds were solved with DMSO and then prepared to work concentration with 40% HBC (2-hydroxypropyl-β-cyclodextrin) in which the final work concentrations of compounds are 5 mg/kg body weight, 10 mg/kg or 20 mg/kg in 100 μl injection volume and the concentration of DMSO is 10%. Compounds were intraperitoneal (i.p.) injected once daily for five days. For Feroline and Tschimganine, one-year age mice were used in the experiment. For other compounds, 8-week age mice were used. […] For Tschimganine, 20 mg/kg dose of compound was administered to mice. For other compounds, 5 mg/kg dose of compounds were administered to mice. Six hours after the fifth injection, 500 mg/kg body weight of APAP solved in PBS was i.p. injected to the mice. 24 hours later, mice were sacrificed. Part of each liver was fixed in 4% paraformaldehyde, and the liver histology characterization was analyzed by haematoxylin and eosin (H&E) staining with paraffin-embedded sections by standard procedures. Other liver tissues were collected for detecting the GSH levels, and the mRNA expression of genes involved in liver repairing, such as GPX1 and UGT1a1, by RT-PCR. The serums were collected to measure enzymes activities including AST, ALT and LDH. For the synthetic derivatives, ALT and GSH were selected as indicating markers for the function of these compounds.

db/db mice [3] = assay: Serum/blood metabolic parameters in high-fat diet fed db/db mice; format: in vivo, mouse
Source text: KK-Ay mice (KK/Upj-Ay/J) are animal models with moderate obese and diabetes with insulin resistance. KK-Ay mice develop hyperglycemia, hyperinsulinemia, glucose intolerance and obesity as well as fat accumulation in liver by eight weeks of age. Pancreatic islets are hypertrophied and the β-cells are degranulated. db/db mice (BKS.Cg-Dockr+/+ Lepr^db/Jnju) are animal models of type II diabetes. They have the phenotype of insulin resistance. These model mice were used to detect the functions of our compounds on metabolic diseases.
8-10 weeks age mice were maintained as example 4, and fed with high-fat diet (Research Diets, D12492). Mice were i.p. injected with compounds once daily for 7, 10, 11 or 14 days as indicated in each table. After the last compounds injection, mice were fasted for 6 hours with free access to water, and then sacrificed. Part of each liver was fixed in 4% paraformaldehyde for H&E staining, and other liver tissues were stored in liquid nitrogen for enzyme activity measurement and gene expression analysis by RT-PCR. The serums were collected to measure metabolic parameters, including serum glucose, insulin, cholesterol, free fatty acid (FFA) and triglyceride levels. Serum glucose was analyzed using glucose oxidase method (Applygen, Beijing, China). The blood glucose in Table 11 was measured with Berenger blood glucose test strips (B/BRAUN, German) from blood by cutting mice tail after the 6th injection and following fast for 16 hours. Serum cholesterol and FFA were analyzed using Cholesterol Assay Kit and FFA Assay Kit (Bioassay Systems, USA; Nanjing Jiancheng Bioengineering Institute, China; FFA ELISA, R&D, USA), respectively. Serum triglyceride was analyzed using Triglyceride Assay Kit (Bioassay Systems, USA; WAKO Chemicals Inc., Japan; Applygen, Beijing, China). Liver triglyceride was analyzed using Tissue triglyceride assay kit (Applygen, Beijing, China). Serum insulin levels were measured by the Ultra Sensitive Mouse Insulin ELISA Kit (Crystal Chem. Inc., USA). RNA was isolated using Tissue RNA kit (Omega Bio-Tek, GA). The first strand cDNA were obtained by TAKARA reverse transcription kit. Real-time quantitative PCR were performed on a CFX96™ Real-Time PCR Detection System (Bio-Rad) using SYBR Premix Ex Taq™ (TAKARA). Relative mRNA expression levels were normalized to actin levels. […]

[4] = 10 mg/kg for 10 days, vehicle 377 ± 48, Table 15
[5] = 5 mg/kg i.p. once daily for five days, 8-week age mice
[6] = 10 mg/kg once daily for 10 days
[7] = 10 mg/kg once daily for 10 days, vehicle 377 ± 48, Table 17
[8] = 10 mg/kg, treat for 10 days, vehicle 527 ± 63
[9] = 5 mg/kg i.p. once daily for five days, 8-week age mice, vehicle 9.1 ± 0.5

Row | Structure (SMILES) | Hepatic triglyceride (mM/g) (db/db mice [1]; 10 mg/kg for 10 days) | Serum ALT (U/L) (db/db mice [1]; [4]) | ALT (U/L) [2, 5] | Serum ALP (U/L) (db/db mice [1]; [6]) | Serum ALT (U/L) (db/db mice [1]; [7]) | also measured
1 | O=C(OC1CCC2CCCCC2C1)c1ccc(O)cc1 (stereo not shown) [XD-28, decahydro-naphthalen-2-yl 4-hydroxy-benzoate] | 87 ± 10 ^c mM/g | 103 ± 17^b U/L | 114 ± 25 ^c U/L | – | – | –
2 | Cc1cc(C(=O)OC2CCC3CCCCC3C2)ccc1O (stereo not shown) [XD-29, decahydro-naphthalen-2-yl 4-hydroxy-3-methylbenzoate] | 116 ± 11 ^a mM/g | 101 ± 46^b U/L | 118 ± 31 ^c U/L | 69 ± 9^c U/L | 101 ± 46^b U/L | –
3 | COc1cc(C(=O)OC2CCC3CCCCC3C2)ccc1O (stereo not shown) [XD-30, decahydro-naphthalen-2-yl 4-hydroxy-3-methoxybenzoate] | 108 ± 8 ^c mM/g | 92 ± 27 ^a U/L | 107 ± 41 ^b U/L | 64 ± 14^a U/L | 92 ± 27^a U/L | Serum Glucose (mg/dl) (db/db mice [3]; [8]): 400 ± 51^a mg/dl
4 | COc1cc(C(=O)O[C@H]2C[C@H]3CC[C@]2(C)C3(C)C)ccc1O [Tschimganine] | – | – | – | – | – | Serum Insulin (ng/ml) (db/db mice [3]; 10 mg/kg for 7 days, vehicle 12 ± 3): 4.7 ± 0.4^b ng/ml; Serum Glucose (mg/dl) (db/db mice [3]; 10 mg/kg for 7 days, vehicle 521 ± 54): 342 ± 36^a mg/dl; Liver morphology by H&E staining (FIG. 1) ([2]; 10 mg/kg (Tschimganine 20 mg/kg) i.p. five days, then APAP, compared to severe liver injury in control group): almost normal liver morphology; Hepatic GSH (μM/g liver tissue) ([2]; 20 mg/kg i.p. once daily for five days, one-year age mice, vehicle 8.0 ± 2.8): 14.9 ± 0.6^b μM/g liver tissue; expression levels of GPX1 and UGT1α1 in liver ([2]; mRNA by RT-PCR, vs vehicle control group, Table 5 (not given)): significantly upregulated; activities of serum AST, ALT and LDH ([2]; vs vehicle control group, Table 5 (not given)): dramatically lower
5 | O=C(OC1CCCCCCCCCCC1)c1ccc(O)cc1 [XD-11, cyclododecyl 4-hydroxybenzoate] | 102 ± 13 ^a mM/g | 106 ± 26 ^a U/L | – | – | – | Hepatic GSH (μM/g liver tissue) [2, 9]: 12.6 ± 0.4 ^b μM/g liver tissue
6 | COc1cc(C(=O)OC2CCC3CCCCC3C2)ccc1[N+](=O)[O-] (stereo not shown) [XD-36, decahydro-naphthalen-2-yl 3-methoxy-4-nitrobenzoate] | – | – | – | – | – | Serum Glucose (mg/dl) (db/db mice [3]; [8]): 366 ± 65^a mg/dl; Hepatic GSH (μM/g liver tissue) [2, 9]: 14.8 ± 0.3 ^b μM/g liver tissue
7 | CC1(C)C2CCC1(C)C(OC(=O)c1ccncc1)C2 (stereo not shown) [XD-6, 1,7,7-trimethyl-bicyclo[2.2.1]-heptan-2-yl isonicotinate] | 90 ± 11^b mM/g | 101 ± 28 ^a U/L | 109 ± 26 ^c U/L | – | – | –
8 | COc1cc(C(=O)OC2CCCCCCC2)ccc1O [XD-18, cyclooctyl 4-hydroxy-3-methoxybenzoate] | – | – | 135 ± 48 ^a U/L | 77 ± 9^c U/L | 129 ± 19^b U/L | –
